Data reported in ChEMBL document CHEMBL1201862, “PubChem BioAssay data set” (2004).
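Test compounds were applied to cells in 96-well plates for 48 hours at 5 doses. The concentration for 50% growth inhibition is given as GI50.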 Calls of active or inactive are those of the source. Cut-off read from the data, not from the text of the source: active = GI50 up to about 1.1 µM and inactive = higher.

How the values were obtained:
Assay in all cases: NCI anticancer screen, dose series, 48 h
U-251 = system: U-251
A498 = system: A498
KM12 = system: KM12
ACHN = system: ACHN
SK-OV-3 = system: SK-OV-3
HCT-116 = system: HCT-116
PC-3 = system: PC-3
HOP-92 = system: HOP-92
MCF7 = system: MCF7
SK-MEL-2 = system: SK-MEL-2
SW-620 = system: SW-620
HT-29 = system: HT-29
A549 = system: A549
NCI-H226 = system: NCI-H226
CAKI-1 = system: CAKI-1
OVCAR-4 = system: OVCAR-4
SNB-19 = system: SNB-19
SK-MEL-5 = system: SK-MEL-5
SN12C = system: SN12C
LOX IMVI = system: LOX IMVI

CCOC(=O)c1nc2c(Cl)c3ncccc3cc2[nH]c1=O
GI50 (U-251): 23 µM (inactive) | GI50 (A498): 79.6 µM (inactive) | GI50 (KM12): 31.6 µM (inactive) | GI50 (ACHN): 95.7 µM (inactive) | GI50 (SK-OV-3): > 100 µM (inactive) | GI50 (HCT-116): 31.8 µM (inactive) | GI50 (PC-3): 30.9 µM (inactive) | GI50 (HOP-92): 40.6 µM (inactive) | GI50 (MCF7): 30.3 µM (inactive) | GI50 (SK-MEL-2): 22.4 µM (inactive) | GI50 (SW-620): 43.3 µM (inactive) | GI50 (HT-29): 38 µM (inactive) | GI50 (A549): 28.4 µM (inactive) | GI50 (NCI-H226): 6.71 µM (inactive) | GI50 (CAKI-1): 66.5 µM (inactive) | GI50 (OVCAR-4): 49.1 µM (inactive) | GI50 (SNB-19): 48.1 µM (inactive) | GI50 (SK-MEL-5): 9.04 µM (inactive)

Oc1c(C2=NNC(c3cccs3)C2)ccc2ccccc12 (centres undefined)
GI50 (U-251): 25 µM (inactive) | GI50 (A498): 26.2 µM (inactive) | GI50 (KM12): 12 µM (inactive) | GI50 (ACHN): 27.7 µM (inactive) | GI50 (SK-OV-3): 27.4 µM (inactive) | GI50 (HCT-116): 16.4 µM (inactive) | GI50 (SN12C): 19.4 µM (inactive) | GI50 (PC-3): 27 µM (inactive) | GI50 (HOP-92): 18.2 µM (inactive) | GI50 (MCF7): 15.6 µM (inactive) | GI50 (SK-MEL-2): 40.5 µM (inactive) | GI50 (SW-620): 24.5 µM (inactive) | GI50 (HT-29): 17.9 µM (inactive) | GI50 (A549): 25.3 µM (inactive) | GI50 (NCI-H226): 24.9 µM (inactive) | GI50 (CAKI-1): 40.6 µM (inactive) | GI50 (OVCAR-4): 29.4 µM (inactive) | GI50 (SK-MEL-5): 23.2 µM (inactive)

CC(/C=C/C=C\C=C\C=C(/C)C(=O)NC(C)CO)=C\C(C)C(O)/C(C)=C/C(C)CCc1ccccc1 (centres undefined)
GI50 (U-251): 14.9 µM (inactive) | GI50 (A498): 12.6 µM (inactive) | GI50 (KM12): 2.32 µM (inactive) | GI50 (ACHN): 0.274 µM (active) | GI50 (SK-OV-3): 16.4 µM (inactive) | GI50 (HCT-116): 0.127 µM (active) | GI50 (SN12C): 12.8 µM (inactive) | GI50 (PC-3): 7.94 µM (inactive) | GI50 (HOP-92): 5.41 µM (inactive) | GI50 (MCF7): 1.84 µM (inactive) | GI50 (SK-MEL-2): 13.2 µM (inactive) | GI50 (SW-620): 13.6 µM (inactive) | GI50 (HT-29): 11.6 µM (inactive) | GI50 (A549): 4.05 µM (inactive) | GI50 (NCI-H226): 8.65 µM (inactive) | GI50 (CAKI-1): 14.2 µM (inactive) | GI50 (OVCAR-4): 12.4 µM (inactive) | GI50 (SNB-19): 15.3 µM (inactive) | GI50 (SK-MEL-5): 0.198 µM (active)

O=C1CC(NC(=O)C(F)(F)F)c2c1csc2Br (centres undefined)
GI50 (U-251): > 100 µM (inactive) | GI50 (A498): 45.3 µM (inactive) | GI50 (LOX IMVI): 60.3 µM (inactive) | GI50 (KM12): 3.03 µM (inactive) | GI50 (ACHN): > 100 µM (inactive) | GI50 (SK-OV-3): > 100 µM (inactive) | GI50 (HCT-116): 32.8 µM (inactive) | GI50 (SN12C): 68.4 µM (inactive) | GI50 (PC-3): > 100 µM (inactive) | GI50 (HOP-92): 35 µM (inactive) | GI50 (MCF7): 2.94 µM (inactive) | GI50 (SK-MEL-2): > 100 µM (inactive) | GI50 (SW-620): 31.8 µM (inactive) | GI50 (HT-29): > 100 µM (inactive) | GI50 (A549): > 100 µM (inactive) | GI50 (NCI-H226): > 100 µM (inactive) | GI50 (OVCAR-4): 58.5 µM (inactive) | GI50 (SNB-19): > 100 µM (inactive) | GI50 (SK-MEL-5): 64.9 µM (inactive)

CN(C)c1ccc(C=C2C(=O)N(c3ccccc3)N(c3ccccc3)C2=O)cc1
GI50 (U-251): 37 µM (inactive) | GI50 (A498): > 100 µM (inactive) | GI50 (LOX IMVI): 76.6 µM (inactive) | GI50 (KM12): 74.8 µM (inactive) | GI50 (ACHN): 81.8 µM (inactive) | GI50 (SK-OV-3): > 100 µM (inactive) | GI50 (HCT-116): > 100 µM (inactive) | GI50 (SN12C): > 100 µM (inactive) | GI50 (PC-3): 78 µM (inactive) | GI50 (HOP-92): 15.6 µM (inactive) | GI50 (MCF7): > 100 µM (inactive) | GI50 (SK-MEL-2): > 100 µM (inactive) | GI50 (SW-620): > 100 µM (inactive) | GI50 (HT-29): 72.8 µM (inactive) | GI50 (A549): 78.9 µM (inactive) | GI50 (NCI-H226): > 100 µM (inactive) | GI50 (SNB-19): 74.3 µM (inactive) | GI50 (SK-MEL-5): > 100 µM (inactive)

COc1ccc(OC)c2sc(N3C(=O)/C(=C/c4ccc(SC)cc4)N=C3c3ccccc3)nc12
GI50 (U-251): 17.5 µM (inactive) | GI50 (A498): > 100 µM (inactive) | GI50 (LOX IMVI): 25.6 µM (inactive) | GI50 (KM12): 20 µM (inactive) | GI50 (ACHN): 28.9 µM (inactive) | GI50 (SK-OV-3): 30.5 µM (inactive) | GI50 (HCT-116): 18.7 µM (inactive) | GI50 (SN12C): 24.9 µM (inactive) | GI50 (PC-3): 21.7 µM (inactive) | GI50 (HOP-92): 55.7 µM (inactive) | GI50 (MCF7): 20.3 µM (inactive) | GI50 (SK-MEL-2): 20.8 µM (inactive) | GI50 (SW-620): 27.4 µM (inactive) | GI50 (HT-29): 23.1 µM (inactive) | GI50 (A549): 22.2 µM (inactive) | GI50 (CAKI-1): 96.2 µM (inactive) | GI50 (OVCAR-4): 28.5 µM (inactive) | GI50 (SNB-19): 26.4 µM (inactive) | GI50 (SK-MEL-5): 15.6 µM (inactive)

Cc1cn(C2CC(COCc3ccccc3)N(CCO[Si](C)(C)C(C)(C)C)O2)c(=O)[nH]c1=O (centres undefined)
GI50 (U-251): 19.2 µM (inactive) | GI50 (A498): 15.2 µM (inactive) | GI50 (KM12): 17.3 µM (inactive) | GI50 (ACHN): 14.9 µM (inactive) | GI50 (SK-OV-3): 17.6 µM (inactive) | GI50 (HCT-116): 16.8 µM (inactive) | GI50 (SN12C): 11 µM (inactive) | GI50 (PC-3): 5.28 µM (inactive) | GI50 (HOP-92): 8.81 µM (inactive) | GI50 (MCF7): 18.5 µM (inactive) | GI50 (SK-MEL-2): 16.4 µM (inactive) | GI50 (SW-620): 15.5 µM (inactive) | GI50 (HT-29): 15.4 µM (inactive) | GI50 (A549): 15.1 µM (inactive) | GI50 (CAKI-1): 18.5 µM (inactive) | GI50 (OVCAR-4): 17.9 µM (inactive) | GI50 (SNB-19): 13.6 µM (inactive) | GI50 (SK-MEL-5): 2.88 µM (inactive)

CC1(C)N=C(N)N=C(N)N1c1cccc(OCCOc2ccc([N+](=O)[O-])cc2)c1
GI50 (U-251): 7.33 µM (inactive) | GI50 (A498): > 100 µM (inactive) | GI50 (LOX IMVI): 8.97 µM (inactive) | GI50 (KM12): 11.5 µM (inactive) | GI50 (ACHN): > 100 µM (inactive) | GI50 (SK-OV-3): > 100 µM (inactive) | GI50 (HCT-116): 4.81 µM (inactive) | GI50 (SN12C): 6.49 µM (inactive) | GI50 (PC-3): 0.822 µM (active) | GI50 (HOP-92): > 100 µM (inactive) | GI50 (MCF7): 16 µM (inactive) | GI50 (SK-MEL-2): 8.26 µM (inactive) | GI50 (SW-620): 3.68 µM (inactive) | GI50 (HT-29): 8.24 µM (inactive) | GI50 (A549): 4.48 µM (inactive) | GI50 (CAKI-1): > 100 µM (inactive) | GI50 (OVCAR-4): 63.5 µM (inactive) | GI50 (SNB-19): 37.8 µM (inactive) | GI50 (SK-MEL-5): 69.5 µM (inactive)

C=C1C[C@@H](O)[C@@H](Br)C(C)(C)[C@@]12C=CC(=O)CC2
GI50 (U-251): > 100 µM (inactive) | GI50 (A498): > 100 µM (inactive) | GI50 (LOX IMVI): > 100 µM (inactive) | GI50 (KM12): 1.52 µM (inactive) | GI50 (ACHN): > 100 µM (inactive) | GI50 (SK-OV-3): > 100 µM (inactive) | GI50 (HCT-116): > 86.5 µM (inactive) | GI50 (SN12C): > 100 µM (inactive) | GI50 (PC-3): 1.5 µM (inactive) | GI50 (HOP-92): > 100 µM (inactive) | GI50 (MCF7): > 100 µM (inactive) | GI50 (SK-MEL-2): > 78.5 µM (inactive) | GI50 (SW-620): > 100 µM (inactive) | GI50 (HT-29): > 100 µM (inactive) | GI50 (A549): > 100 µM (inactive) | GI50 (CAKI-1): > 100 µM (inactive) | GI50 (OVCAR-4): > 100 µM (inactive) | GI50 (SNB-19): > 100 µM (inactive) | GI50 (SK-MEL-5): > 100 µM (inactive)

O=C1O/C(=C\c2ccc(O)c(Br)c2)C(c2ccc(O)cc2)=C1Cl
GI50 (U-251): 44.8 µM (inactive) | GI50 (A498): 25.3 µM (inactive) | GI50 (LOX IMVI): 42.2 µM (inactive) | GI50 (KM12): 34.2 µM (inactive) | GI50 (ACHN): 49.9 µM (inactive) | GI50 (SK-OV-3): > 100 µM (inactive) | GI50 (HCT-116): 34.1 µM (inactive) | GI50 (PC-3): 51.1 µM (inactive) | GI50 (HOP-92): 37.4 µM (inactive) | GI50 (MCF7): 19.2 µM (inactive) | GI50 (SK-MEL-2): 40.1 µM (inactive) | GI50 (SW-620): 38.2 µM (inactive) | GI50 (HT-29): 51.9 µM (inactive) | GI50 (A549): 36.1 µM (inactive) | GI50 (CAKI-1): 37 µM (inactive) | GI50 (OVCAR-4): 40 µM (inactive) | GI50 (SNB-19): 89.3 µM (inactive) | GI50 (SK-MEL-5): 22.4 µM (inactive)

Cn1cc2c3ccccc3nc-2c2ccccc21 [ISOCRYPTOLEPINE]
GI50 (U-251): 2.42 µM (inactive) | GI50 (A498): 1.74 µM (inactive) | GI50 (LOX IMVI): 1.77 µM (inactive) | GI50 (KM12): 2.08 µM (inactive) | GI50 (ACHN): 1.71 µM (inactive) | GI50 (SK-OV-3): 1.99 µM (inactive) | GI50 (HCT-116): 1 µM (active) | GI50 (SN12C): 1.57 µM (inactive) | GI50 (PC-3): 2.52 µM (inactive) | GI50 (HOP-92): 1.91 µM (inactive) | GI50 (MCF7): 2.67 µM (inactive) | GI50 (SK-MEL-2): 1.91 µM (inactive) | GI50 (SW-620): 1.12 µM (inactive) | GI50 (HT-29): 1.29 µM (inactive) | GI50 (A549): 2.17 µM (inactive) | GI50 (CAKI-1): 2.32 µM (inactive) | GI50 (OVCAR-4): 1.92 µM (inactive) | GI50 (SNB-19): 2.96 µM (inactive) | GI50 (SK-MEL-5): 1.7 µM (inactive)
